Source: article PMC6979384, “Characterization of the plant homeodomain (PHD) reader family for their histone tail interactions” (Epigenetics & Chromatin, 2020)

Experiments:
Assay in all cases: Histone peptide microarray
Type in all cases: binding, human
[1] = tested on: PHRF1 (RP); conditions: PHRF1 (RP); sheet "Array Heatmap"; each array performed twice, total n = 4
Summary of the method: (§1)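 Each reader, produced as a GST fusion and purified, was tested at 0.5 μM on synthetic histone peptides (293 in total) carrying single or combinatorial marks. Intensities averaged over four replicates.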

[2] = tested on: KDM5A (3); conditions: KDM5A (3); sheet "Array Heatmap"; each array performed twice, total n = 4
Summary of the method: as §1

[3] = tested on: CHD5 (PPCC); conditions: CHD5 (PPCC); sheet "Array Heatmap"; each array performed twice, total n = 4
Summary of the method: as §1

[4] = tested on: ING2; conditions: ING2; sheet "Array Heatmap"; each array performed twice, total n = 4
Summary of the method: as §1

[5] = tested on: MORC3 (CW); conditions: MORC3 (CW); sheet "Array Heatmap"; each array performed twice, total n = 4
Summary of the method: as §1

[6] = tested on: DIDO1; conditions: DIDO1; sheet "Array Heatmap"; each array performed twice, total n = 4
Summary of the method: as §1

[7] = tested on: TAF3; conditions: TAF3; sheet "Array Heatmap"; each array performed twice, total n = 4
Summary of the method: as §1

[8] = tested on: ING4; conditions: ING4; sheet "Array Heatmap"; each array performed twice, total n = 4
Summary of the method: as §1

[9] = tested on: ING1; conditions: ING1; sheet "Array Heatmap"; each array performed twice, total n = 4
Summary of the method: as §1

[10] = tested on: BAZ2B; conditions: BAZ2B; sheet "Array Heatmap"; each array performed twice, total n = 4
Summary of the method: as §1

[11] = tested on: AIRE (PP); conditions: AIRE (PP); sheet "Array Heatmap"; each array performed twice, total n = 4
Summary of the method: as §1

[12] = tested on: PHF21A; conditions: PHF21A; sheet "Array Heatmap"; each array performed twice, total n = 4
Summary of the method: as §1

[13] = tested on: ING3; conditions: ING3; sheet "Array Heatmap"; each array performed twice, total n = 4
Summary of the method: as §1

[14] = tested on: SP140L; conditions: SP140L; sheet "Array Heatmap"; each array performed twice, total n = 4
Summary of the method: as §1

[15] = tested on: CHD5 (PCC); conditions: CHD5 (PCC); sheet "Array Heatmap"; each array performed twice, total n = 4
Summary of the method: as §1

[16] = tested on: DPF2 (PPC2W2); conditions: DPF2 (PPC2W2); sheet "Array Heatmap"; each array performed twice, total n = 4
Summary of the method: as §1

[17] = tested on: BPTF (PB); conditions: BPTF (PB); sheet "Array Heatmap"; each array performed twice, total n = 4
Summary of the method: as §1

[18] = tested on: KDM7A; conditions: KDM7A; sheet "Array Heatmap"; each array performed twice, total n = 4
Summary of the method: as §1

[19] = tested on: PHF13; conditions: PHF13; sheet "Array Heatmap"; each array performed twice, total n = 4
Summary of the method: as §1

[20] = tested on: KDM5B (3); conditions: KDM5B (3); sheet "Array Heatmap"; each array performed twice, total n = 4
Summary of the method: as §1

[21] = tested on: ING5; conditions: ING5; sheet "Array Heatmap"; each array performed twice, total n = 4
Summary of the method: as §1

[22] = tested on: KDM4C (TTP); conditions: KDM4C (TTP); sheet "Array Heatmap"; each array performed twice, total n = 4
Summary of the method: as §1

[23] = tested on: KDM5B (1); conditions: KDM5B (1); sheet "Array Heatmap"; each array performed twice, total n = 4
Summary of the method: as §1

[24] = tested on: MLL5; conditions: MLL5; sheet "Array Heatmap"; each array performed twice, total n = 4
Summary of the method: as §1

[25] = tested on: KDM5A (1); conditions: KDM5A (1); sheet "Array Heatmap"; each array performed twice, total n = 4
Summary of the method: as §1

[26] = tested on: PHF8; conditions: PHF8; sheet "Array Heatmap"; each array performed twice, total n = 4
Summary of the method: as §1

[27] = tested on: PHF23; conditions: PHF23; sheet "Array Heatmap"; each array performed twice, total n = 4
Summary of the method: as §1

[28] = tested on: CHD4 (PPCC); conditions: CHD4 (PPCC); sheet "Array Heatmap"; each array performed twice, total n = 4
Summary of the method: as §1

[29] = tested on: RAG2; conditions: RAG2; sheet "Array Heatmap"; each array performed twice, total n = 4
Summary of the method: as §1

[30] = tested on: PHF2; conditions: PHF2; sheet "Array Heatmap"; each array performed twice, total n = 4
Summary of the method: as §1

[31] = tested on: TRIM66 (PB); conditions: TRIM66 (PB); sheet "Array Heatmap"; each array performed twice, total n = 4
Summary of the method: as §1

Substance | Array Heatmap value (peptide array signal) [1] | Array Heatmap value (peptide array signal) [2] | Array Heatmap value (peptide array signal) [3] | Array Heatmap value (peptide array signal) [4] | Array Heatmap value (peptide array signal) [5] | Array Heatmap value (peptide array signal) [6] | Array Heatmap value (peptide array signal) [7] | Array Heatmap value (peptide array signal) [8] | Array Heatmap value (peptide array signal) [9] | Array Heatmap value (peptide array signal) [10] | Array Heatmap value (peptide array signal) [11] | Array Heatmap value (peptide array signal) [12] | Array Heatmap value (peptide array signal) [13] | Array Heatmap value (peptide array signal) [14] | Array Heatmap value (peptide array signal) [15] | Array Heatmap value (peptide array signal) [16] | Array Heatmap value (peptide array signal) [17] | Array Heatmap value (peptide array signal) [18] | Array Heatmap value (peptide array signal) [19] | Array Heatmap value (peptide array signal) [20] | other results
H2BK15ac: H2B 1-24 [Peptide H2BK15ac] | 0.4303 | 0.4161 | 0.5537 | 0.6208 | 0.3521 | 0.6647 | 0.2676 | 0.465 | 0.5436 | 0.4604 | 0.4221 | 0.4803 | 0.4826 | 0.361 | 0.7574 | 0.6359 | 0.3575 | 0.3558 | 0.6426 | 0.457 | Array Heatmap value (peptide array signal) [21]: 0.3652; Array Heatmap value (peptide array signal) [22]: 0.4832; Array Heatmap value (peptide array signal) [23]: 0.6467; Array Heatmap value (peptide array signal) [24]: 0.5596; Array Heatmap value (peptide array signal) [25]: 0.465; Array Heatmap value (peptide array signal) [26]: 0.3468; Array Heatmap value (peptide array signal) [27]: 0.5678; Array Heatmap value (peptide array signal) [28]: 0.606; Array Heatmap value (peptide array signal) [29]: 0.2507; Array Heatmap value (peptide array signal) [30]: 0.5204; Array Heatmap value (peptide array signal) [31]: 0.5831
H2BK16ac: H2B 1-24 [Peptide H2BK16ac] | 0.501 | 0.4534 | 0.5498 | 0.6054 | 0.3691 | 0.7223 | 0.2759 | 0.4481 | 0.5501 | 0.4705 | 0.4203 | 0.4621 | 0.4774 | 0.3579 | 0.7842 | 0.6685 | 0.3487 | 0.3335 | 0.6297 | 0.4678 | Array Heatmap value (peptide array signal) [21]: 0.3562; Array Heatmap value (peptide array signal) [22]: 0.4673; Array Heatmap value (peptide array signal) [23]: 0.6719; Array Heatmap value (peptide array signal) [24]: 0.5839; Array Heatmap value (peptide array signal) [25]: 0.4583; Array Heatmap value (peptide array signal) [26]: 0.3517; Array Heatmap value (peptide array signal) [27]: 0.5681; Array Heatmap value (peptide array signal) [28]: 0.5943; Array Heatmap value (peptide array signal) [29]: 0.2422; Array Heatmap value (peptide array signal) [30]: 0.5633; Array Heatmap value (peptide array signal) [31]: 0.6089
